Measured values published in US20240246908A1 (ORION CORPORATION, priority 2021, published 2024).

Tested on: YAP-TEAD
Experiment: TEAD inhibition, Hippo Pathway TEAD Reporter MCF-7 luciferase assay
Type: cell-based
Conditions: Homo sapiens, MCF7, 24 h, Hippo Pathway TEAD Reporter MCF-7 cells, luciferase activity after 24 h; read-out: IC50 of the test compounds on YAP-TEAD inhibition (Group)
Procedure, shortened: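 IC50 derived from ONE-Glo luciferase luminescence after 24 h compound exposure (11 concentrations in quadruplicate, 0.1% DMSO control). Reporter: MCF-7 line expressing firefly luciferase under TEAD elements, constitutively activated by nuclear YAP1.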

Compound	IC50 [nM]
COc1ccc(Oc2cccc(C(F)(F)F)c2)cc1NC(=O)C1CN(C(C)=O)C1 [Compound 289, 1-Acetyl-N-(2-methoxy-5-(3-(trifluoromethyl)phenoxy)phenyl)azetidine-3-carboxamide]	301 to 2000
COc1ccc(Oc2ccc(OC(F)(F)F)cc2)cc1NC(=O)[C@H]1CCC(=O)N1C [Compound 290, (R)—N-(2-methoxy-5-(4-(trifluoromethoxy)phenoxy)phenyl)-1-methyl-5-oxopyrrolidine-2-carboxamide]	< 50
COc1ccc(Oc2cccc(OC(F)(F)F)c2)cc1NC(=O)C1CCC(=O)N1C (centres unmarked) [Compound 291, N-(2-methoxy-5-(3-(trifluoromethoxy)phenoxy)phenyl)-1-methyl-5-oxo-pyrrolidine-2-carboxamide]	50 to 300
COc1ccc(Oc2ccc(C(F)F)cc2)cc1NC(=O)C1CCC(=O)N1C (centres unmarked) [Compound 292, N-(5-(4-(Difluoromethyl)phenoxy)-2-methoxyphenyl)-1-methyl-5-oxo-pyrrolidine-2-carboxamide]	< 50
COc1cc(Oc2ccc(OC)c(NC(=O)[C@H]3CCC(=O)N3C)c2)ccc1F [Compound 293, (R)—N-(5-(4-Fluoro-3-methoxyphenoxy)-2-methoxyphenyl)-1-methyl-5-oxo-pyrrolidine-2-carboxamide]	50 to 300
COc1ccc(OCC2CCCCC2)cc1NC(=O)C1CCC(=O)N1C (centres unmarked) [Compound 294, N-(5-(Cyclohexylmethoxy)-2-methoxyphenyl)-1-methyl-5-oxopyrrolidine-2-carboxamide]	< 50
COc1ccc(Oc2ccc(OC)c(NC(=O)C3CCC(=O)N3C)c2)cc1F (centres unmarked) [Compound 295, N-(5-(3-Fluoro-4-methoxyphenoxy)-2-methoxyphenyl)-1-methyl-5-oxo-pyrrolidine-2-carboxamide]	50 to 300
COc1ccc(OC2CCC(C)(C)CC2)cc1NC(=O)C1CCC(=O)N1C (centres unmarked) [Compound 296, N-(5-((4,4-Dimethylcyclohexyl)oxy)-2-methoxyphenyl)-1-methyl-5-oxo-pyrrolidine-2-carboxamide]	< 50
COc1ccc(Sc2ccc(F)c(F)c2)cc1NC(=O)C1CCC(=O)N1C (centres unmarked) [Compound 297, N-(5-((3,4-Difluorophenyl)thio)-2-methoxyphenyl)-1-methyl-5-oxopyrrolidine-2-carboxamide]	< 50
COc1ccc(Sc2ccc(F)c(F)c2)cc1NC(=O)C1CCC(=O)N1 (centres unmarked) [Compound 298, N-(5-((3,4-Difluorophenyl)thio)-2-methoxyphenyl)-5-oxopyrrolidine-2-carboxamide]	< 50
COc1ccc(Oc2cccc(Br)c2)cc1NC(=O)C1CCC(=O)N1C (centres unmarked) [Compound 299, N-(5-(3-Bromophenoxy)-2-methoxyphenyl)-1-methyl-5-oxopyrrolidine-2-carboxamide]	< 50
COc1ccc(Oc2ccc(OC(F)(F)F)cc2)cc1NC(=O)C1CCC(=O)N1 (centres unmarked) [Compound 300, N-(2-Methoxy-5-(4-(trifluoromethoxy)phenoxy)phenyl)-5-oxopyrrolidine-2-carboxamide]	< 50
COc1ccc(Oc2ccc(OC(C)C)cc2)cc1NC(=O)C1CCC(=O)N1 (centres unmarked) [Compound 301, N-(5-(4-Isopropoxyphenoxy)-2-methoxyphenyl)-5-oxopyrrolidine-2-carboxamide]	301 to 2000
COc1ccc(OCC2CC(F)(F)C2)cc1NC(=O)C1CCC(=O)N1C (centres unmarked) [Compound 302, N-(5-((3,3-Difluorocyclobutyl)methoxy)-2-methoxyphenyl)-1-methyl-5-oxopyrrolidine-2-carboxamide]	301 to 2000
CN1C(=O)CCC1C(=O)Nc1cc(Oc2ccc(F)cc2)cc(C(F)(F)F)c1 (centres unmarked) [Compound 303, N-(3-(4-Fluorophenoxy)-5-(trifluoromethyl)phenyl)-1-methyl-5-oxopyrrolidine-2-carboxamide]	301 to 2000
COc1ccc(Oc2ccc(Cl)cc2)cc1NC(=O)C1CCC(=O)N1C (centres unmarked) [Compound 304, N-(5-(4-Chlorophenoxy)-2-methoxyphenyl)-1-methyl-5-oxopyrrolidine-2-carboxamide]	< 50
COc1ccc(Oc2ccc(Cl)c(F)c2)cc1NC(=O)C1CCC(=O)N1C (centres unmarked) [Compound 305, N-(5-(4-Chloro-3-fluorophenoxy)-2-methoxyphenyl)-1-methyl-5-oxopyrrolidine-2-carboxamide]	< 50
CN1C(=O)CCC1C(=O)Nc1cc(C#N)cc(Oc2ccc(C(F)(F)F)cc2)c1 (centres unmarked) [Compound 306, N-(3-Cyano-5-(4-(trifluoromethyl)phenoxy)phenyl)-1-methyl-5-oxopyrrolidine-2-carboxamide]	301 to 2000
COc1ccc(Oc2ccc(Cl)cc2)cc1NC(=O)[C@@H]1CCC(=O)N1C [Compound 307, (S)—N-(5-(4-Chlorophenoxy)-2-methoxyphenyl)-1-methyl-5-oxopyrrolidine-2-carboxamide]	< 50

Compound	IC50 [nM]
COc1ccc(Oc2ccc(Cl)cc2)cc1NC(=O)[C@H]1CCC(=O)N1C [Compound 308, (R)—N-(5-(4-Chlorophenoxy)-2-methoxyphenyl)-1-methyl-5-oxopyrrolidine-2-carboxamide]	< 50
COc1ccc(Oc2ccc(C#N)c(Cl)c2)cc1NC(=O)C1CCC(=O)N1C (centres unmarked) [Compound 309, N-(5-(3-Chloro-4-cyanophenoxy)-2-methoxyphenyl)-1-methyl-5-oxopyrrolidine-2-carboxamide]	50 to 300
COc1ccc(Oc2ccc(C#N)c(Cl)c2)cc1NC(=O)[C@@H]1CCC(=O)N1C [Compound 310, (S)—N-(5-(3-Chloro-4-cyanophenoxy)-2-methoxyphenyl)-1-methyl-5-oxo-pyrrolidine-2-carboxamide]	50 to 300
COc1ccc(Oc2ccc(C(F)(F)F)cc2)cc1NC(=O)[C@@H]1CCCN1S(C)(=O)=O [Compound 311, (S)—N-(2-Methoxy-5-(4-(trifluoromethyl)phenoxy)phenyl)-1-(methylsulfonyl)-pyrrolidine-2-carboxamide]	301 to 2000
COc1ccc(Oc2ccc(Cl)c(F)c2)cc1NC(=O)[C@@H]1CCC(=O)N1C [Compound 312, (S)—N-(5-(4-Chloro-3-fluorophenoxy)-2-methoxyphenyl)-1-methyl-5-oxo-pyrrolidine-2-carboxamide]	< 50
COc1ccc(Oc2ccc(C(F)F)cc2)cc1NC(=O)[C@@H]1CCC(=O)N1C [Compound 313, (S)—N-(5-(4-(Difluoromethyl)phenoxy)-2-methoxyphenyl)-1-methyl-5-oxo-pyrrolidine-2-carboxamide]	< 50
COc1ccc(Oc2ccc3c(c2)CCO3)cc1NC(=O)C1CCC(=O)N1C (centres unmarked) [Compound 315, N-(5-((2,3-Dihydrobenzofuran-5-yl)oxy)-2-methoxyphenyl)-1-methyl-5-oxopyrrolidine-2-carboxamide]	50 to 300
COc1ccc(Oc2cccc(Cl)c2)cc1NC(=O)C1CCC(=O)N1C (centres unmarked) [Compound 316, N-(5-(3-Chlorophenoxy)-2-methoxyphenyl)-1-methyl-5-oxopyrrolidine-2-carboxamide]	< 50
COCCN1C(=O)CCC1C(=O)Nc1cc(Oc2ccc(C(F)(F)F)cc2)ccc1OC (centres unmarked) [Compound 318, N-(2-Methoxy-5-(4-(trifluoromethyl)phenoxy)phenyl)-1-(2-methoxyethyl)-5-oxopyrrolidine-2-carboxamide]	< 50
COc1ccc(Oc2ccc(C(F)F)cc2)cc1NC(=O)[C@H]1CCC(=O)N1C [Compound 319, (R)—N-(5-(4-(Difluoromethyl)phenoxy)-2-methoxyphenyl)-1-methyl-5-oxo-pyrrolidine-2-carboxamide]	< 50
COc1ccc(Oc2ccc(C(F)(F)F)cc2)cc1NC(=O)C1CCCC(=O)N1C (centres unmarked) [Compound 320, N-(2-Methoxy-5-(4-(trifluoromethyl)phenoxy)phenyl)-1-methyl-6-oxo-piperidine-2-carboxamide]	< 50
COc1ccc(Oc2ccc(F)c(F)c2)cc1NC(=O)C1CCCC(=O)N1C (centres unmarked) [Compound 321, N-(5-(3,4-Difluorophenoxy)-2-methoxyphenyl)-1-methyl-6-oxopiperidine-2-carboxamide]	50 to 300
COc1ccc(Oc2ccc(C(F)(F)F)cc2)cc1NC(=O)C1CCNC(=O)C1 (centres unmarked) [Compound 322, N-(2-Methoxy-5-(4-(trifluoromethyl)phenoxy)phenyl)-2-oxopiperidine-4-carboxamide]	< 50
COc1ccc(Oc2ccc(C(F)(F)F)cc2)cc1NC(=O)C1CCN(C)C(=O)C1 (centres unmarked) [Compound 323, N-(2-Methoxy-5-(4-(trifluoromethyl)phenoxy)phenyl)-1-methyl-2-oxo-piperidine-4-carboxamide]	301 to 2000
COc1ccc(Oc2ccc(C(F)(F)F)cc2)cc1NC(=O)C1CCN(S(C)(=O)=O)C1 (centres unmarked) [Compound 326, N-(2-Methoxy-5-(4-(trifluoromethyl)phenoxy)phenyl)-1-(methylsulfonyl)-pyrrolidine-3-carboxamide]	301 to 2000
COc1ccc(Oc2cc(C(F)(F)F)ccn2)cc1NC(=O)C1CCNC(=O)C1 (centres unmarked) [Compound 327, N-(2-methoxy-5-((4-(trifluoromethyl)pyridin-2-yl)oxy)phenyl)-2-oxopiperidine-4-carboxamide]	301 to 2000
CN1C(=O)CCC1C(=O)Nc1cc(Oc2ccc(OC(F)(F)F)cc2)ccc1F (centres unmarked) [Compound 328, N-(2-Fluoro-5-(4-(trifluoromethoxy)phenoxy)phenyl)-1-methyl-S-oxopyrrolidine-2-carboxamide]	50 to 300
CN1C(=O)CCC1C(=O)Nc1cc(Oc2ccc(OC(F)(F)F)cc2)ccc1Cl (centres unmarked) [Compound 329, N-(2-Chloro-5-(4-(trifluoromethoxy)phenoxy)phenyl)-1-methyl-5-oxo-pyrrolidine-2-carboxamide]	301 to 2000
CN1C(=O)CCC1C(=O)Nc1cc(Oc2ccc(C(F)(F)F)cc2)ccc1C(N)=O (centres unmarked) [Compound 330, N-(2-Carbamoyl-5-(4-(trifluoromethyl)phenoxy)phenyl)-1-methyl-5-oxopyrrolidine-2-carboxamide]	301 to 2000
